Test results as given in patent US8383595B2, “Peptide derivative and composition for promoting tear secretion comprising the same” (Kinki University, priority 2008, dated 2013).
Where no end group is shown, it is not given here.

Key:
[1] = tested on: rat lacrimal secretion; assay: Rat lacrimal fluid secretion in vivo (Schirmer test paper); settings: male Wistar rat; for lacrimal secretion promoting action: peptide 5 μmol/kg i.v. one minute after amastatin 2.5 μmol/kg i.v., six minutes after administration (FIGS. 1, 3); for lacrimal secretion promoting action compared with Ser-Leu-Ile-Gly-Arg-Leu-NH2 and Ile-Gly-Arg-Leu-NH2: six minutes after administration (FIGS. 2, 4)
Method: An amount of lacrimal secretion which is an indication for determining an effect of promoting lacrimal secretion can be measured according to a known method such as by Iga et al. (Iga, Y. et al., Jpn. J. Pharmacol., 78, 373-80, 1998) using a rat. In particular, a rat is anesthetized with pentobarbital (50 mg/kg, intra-abdominal administration), and a paper with 2 mm width for testing the human lacrimal secretion function, the Schirmer test paper (Showa Yakuhin Kako Co., Ltd.) is inserted into a lower eyelid of the rat. After a fixed period of time has passed, the test paper is removed, and a length of the wetted portion of the test paper is measured using a caliper square. If a statistically significant increase of lacrimal secretion is observed when a test substance is administered, it can be said that the substance has the lacrimal secretion promoting action.
Male Wistar rat at 6 weeks of age was used in experiments. Each animal was housed for one week under the environment of room temperature of 23±2° C., a humidity of 50±5% and a 12 hours light/dark cycle (light: 07:00-19:00) and, thereafter, it was subjected to experiments. During the housing and experiment period, the animal was fed a solid chaw and water ad lib.
An amount of rat lacrimal fluid secretion was measured according to the method of Iga et al. (Iga, Y. et al., Jpn. J. Pharmacol., 78, 373-80, 1998). That is, the rat was anesthetized with pentobarbital (50 mg/kg, intraabdominal administration), and a paper with 2 mm width for testing human lacrimal secretion function, the Schirmer test paper (Showa Yakuhin Kako Co., Ltd.) was inserted into a lower eyelid of the rat. After the period of time fixed has passed, the test paper was removed, and a length of a wetted portion of the test paper was measured using a caliper square to define an indicator of lacrimal secretion. An amount of lacrimal fluid was measured at 1, 2, 4 and 6 minutes after administration of the peptides.
In addition, the results are shown in the mean (mm)±standard error, and the test of significance was performed according to a Tukey's multiple comparison test.
A physiological salt solution of amastatin (2.5 μmol/kg), which is an aminopeptidase inhibitor, was intravenously administrated to the rat, and after one minute, a physiological salt solution of various peptide derivatives (5 μmol/kg) was intravenously administrated. Measurements were initiated immediately after administration of the peptides.
As a control, an amount of lacrimal secretion was also measured in the case where the physiological salt solution without the peptide (solvent) was intravenously, administrated.

[2] = tested on: PAR-2; settings: as disclosed in JP 2001-181208A; cited from earlier work
[3] = tested on: rat lacrimal secretion; settings: earlier finding, no details given; cited from earlier work
[4] = peptide 5 μmol/kg i.v. after amastatin 2.5 μmol/kg i.v.

Row | Compound | lacrimal secretion promoting action [1] | also measured
1 | cyclo-L-Arg-L-Leu-NH2 [cyclo-Arg-Leu] | did not entirely influence on lacrimal secretion | –
2 | Ser-Leu-Ile-Gly-Arg-Leu-NH2 (SLIGRL-NH2) | – | activation of PAR-2 [2]: activates PAR-2; lacrimal secretion promoting action (previously demonstrated) [3]: previously demonstrated to have the lacrimal secretion promoting action
3 | Ile-Gly-Arg-Leu-NH2 (IGRL-NH2) [Ile-Gly-Arg-Leu-NH7] | – | lacrimal secretion promoting action (previously demonstrated) [3]: previously demonstrated to have the lacrimal secretion promoting action
4 | D-Arg-L-Leu-NH2 [(D) Arg-(L)Leu-NH2] | did not entirely influence on lacrimal secretion | –
5 | D-Arg-D-Leu-NH2 [(D)Arg-(D)Leu-NH2] | did not entirely influence on lacrimal secretion | –
6 | L-Arg-D-Leu-NH2 [(L)Arg-(D)Leu-NH2] | did not entirely influence on lacrimal secretion | –
7 | L-Arg-L-Leu-NH2 [(L)Arg-(L)Leu-NH2] | promote lacrimal secretion | lacrimal secretion promoting action compared with Ser-Leu-Ile-Gly-Arg-Leu-NH2 and Ile-Gly-Arg-Leu-NH2 [1, 4]: lower than those of Ser-Leu-Ile-Gly-Arg-Leu-NH2 and Ile-Gly-Arg-Leu-NH2
8 | CC(C)C[C@H](NC(=O)[C@H](CCCNC(=N)N)NC(=O)c1ccco1)C(N)=O [2-furoyl-(L)Arg-(L)Leu-NH2, N-(2-furoyl)-L-Arg-L-Leu-NH2] | potent lacrimal secretion promoting action | duration of the lacrimal secretion promoting action compared with Ser-Leu-Ile-Gly-Arg-Leu-NH2 and Ile-Gly-Arg-Leu-NH2 ([1]; peptide 5 μmol/kg i.v. after amastatin 2.5 μmol/kg i.v., measured at 1, 2, 4 and 6 minutes (FIG. 5)): maintained over a longer period of time; lacrimal secretion promoting action compared with Ser-Leu-Ile-Gly-Arg-Leu-NH2 and Ile-Gly-Arg-Leu-NH2 [1, 4]: almost the same as those of Ser-Leu-Ile-Gly-Arg-Leu-NH2 and Ile-Gly-Arg-Leu-NH2
